Data as given in US9623063B2, “Extracts from Ajuga reptans cell lines, their preparation and use” (I.R.B. ISTITUTO DI RICERCHE BIOTECNOLOGICHE S.r.l., priority 2005, dated 2017).

Columns and labels:
[1] = Superoxide anion chemiluminescent assay (hypoxanthine/xanthine oxidase, Lumimax kit); assay type: biochemical; details: means of 6 independent assays
Source text: (§1) The superoxide anion has been measured by a chemiluminescent assay based on the hypoxanthine (HPX)/xanthine oxidase (XOD) reaction using the Lumimax Superoxide Anion Detection Kit (Stratagene, La Jolla, Calif., USA) and following the manufacturer's instructions. Hydroxyl radical scavenger activity has been measured by means of the Fenton reaction for the production of hydroxyl radicals and chemiluminescent dosage (using a Victor^3 chemiluminometer, Wallac, Finland) with luminol. Peroxynitrite ions have been determined by means of dosage with a spontaneous generator of peroxynitrites (3-morpholinosidnonimine hydrochloride; SIN-1) and a stable reagent for the nitroxyl ions (2-(4-carboxyphenyl)-4,4,5,5-tetramethylimidazoline-1-oxyl-3-oxide potassium salt PTIO spin trap) then dosed by means of electron spin resonance (ESR) using a Nippon Denshi JES-FR30. Lipid peroxidation has been generated using Fe^2+ induced-oxygen reactive species, and detected using thiobarbituric acid in accordance with Buege, J A & Aust, S D: Microsomal lipid peroxidation (Methods Enzymol.
(§2) The results are expressed as the concentration inhibiting 50% of activity (IC50), means of 6 independent assays.

[2] = Peroxynitrite scavenging (SIN-1, PTIO spin trap, ESR); assay type: biochemical; details: means of 6 independent assays
Source text: as §1, §2

A549 cells (ATCC-CCL185) = experiment: BSO-induced oxidative stress, ROS by DCF fluorimetry in A549 cells; assay type: cell-based, human; details: 20 μM; with BSO; control without BSO = 100
Description: 10×10^5 A549 cells (ATCC-CCL185) have been seeded into wells with 3 ml of DMEM/F12K HAM medium (Sigma-Aldrich) with 10% FCS and incubated at 37° C. in a 5% CO2, water vapour saturated atmosphere. After 24 hours the culture medium is replaced by medium supplemented with BSO, which is left in contact with the cells for 20 hours. The medium is once again replaced with medium containing BSO in the presence or absence of the test compound. After 4 hours, quantitative measurement of the ROSs (hydroxyl radicals) is performed by washing the cells with phosphate buffer and then incubating them with 30 μM DCF-DA in buffer solution. At the end of a 15 minute incubation, excess DCF-DA is removed from the cells by washing, prior to measuring the fluorescence emitted.
Antioxidant activity measurements are performed using a (Hitachi F3010) spectrophotometer with excitation at 488 nm and measuring emission at 525 nm, and values are expressed in pmoles, by extrapolation from the calibration curve constructed using known quantities of DCF, and in relation to total cellular protein. Values are thus expressed in % ages with respect to the ROS content of the cells not subjected to treatment with BSO (control) to which are assigned a value of 100.
The Extracts 1 and 2, Teupolioside and Ascorbic Acid were solubilized in phosphate buffer 10 mM at pH 7.4, whereas trolox was solubilized in 0.1% of dimethylsulphoxide and culture medium.

3T3 fibroblasts = experiment: BSO-induced oxidative death of 3T3 fibroblasts (MTT); assay type: cell-based, BALB/c mouse; details: 20 μM; BSO 200 μM, 24 hours

C[C@@H]1O[C@@H](O[C@@H]2[C@@H](O)[C@H](OCCc3ccc(O)c(O)c3)O[C@H](CO)[C@H]2OC(=O)/C=C/c2ccc(O)c(O)c2)[C@H](O[C@@H]2O[C@H](CO)[C@H](O)[C@H](O)[C@H]2O)[C@H](O)[C@H]1O [Teupolioside, teupolioside]
Superoxide radical (IC50) [1]: 1 µg/mL
Peroxynitrite radical (IC50) [2]: 1.8 µg/mL
% ROS in picomoles (A549 cells (ATCC-CCL185)): 135 ± 7 %
% survived cells (3T3 fibroblasts): 75.5%
